One assay has as its target T1, aldose reductase (Homo sapiens, UniProt P15121).
T1 construct: partially purified aldose reductase enzyme obtained from human placenta; from tissue; host or cells: human placenta
The assay can be described thus: Inhibition of aldose reductase enzyme activity (procedure of Hayman et al. as modified by Sestanj et al.). It is filed as biochemical. The settings on record: for inhibition at 10 µM: 10^-5 M; for inhibition at 1 µM: 10^-6 M; for inhibition at 0.1 µM: 10^-7 M; for aldose reductase inhibition (in words): qualitative statement. The protocol:
(§1) The activity of the compounds of the present invention, as agents for the control of chronic diabetic complications, is determined by their ability to successfully pass one or more of the following standard biological or pharmacological tests, viz., (1) measuring their ability to inhibit the enzyme activity of isolated aldose reductase; (2) measuring their ability to reduce or inhibit sorbitol accumulation in the sciatic nerve and lens of acutely streptozotocinized (i.e., diabetic) rats; (3) measuring their ability to reverse already-elevated sorbitol levels in the sciatic nerve and lens of chronic streptozotocin-induced diabetic rats; (4) measuring their ability to prevent or inhibit galactitol formation in the lens of acutely galactosemic rats, and (5) measuring their ability to delay cataract formation and reduce the severity of lens opacities in chronic galactosemic rats.
The following 5-substituted imidzolidinedione derivatives of Examples 1 and 4, respectively, were tested for their ability to reduce or inhibit aldose reductase enzyme activity via the procedure of S. Hayman et al., as described in the Journal of Biological Chemistry, Vol. 240, p. 877 (1965) and as modified by K. Sestanj et al. in U.S. Pat. No. 3,821,383. In each case, the substrate employed was partially purified aldose reductase enzyme obtained from human placenta.

Assay [1] relates to sorbitol levels in nerve and lens of diabetic subjects. The assay can be described thus: Lowering of sorbitol levels in sciatic/peripheral nerve and lens of diabetic subjects (general statement). The class given is in vivo. Conditions: qualitative statement. The protocol: as §1
Assay [2] relates to sorbitol accumulation in the lens. The assay can be described thus: Inhibition of sorbitol accumulation in the lens of streptozotocinized (diabetic) rats. The class given is in vivo, rat.
Text: (§2) As previously indicated, the 5-substituted imidazolidinedione compounds of this inventon are readily adapted to therapeutic use as aldose reductase inhibitors for the control of certain chronic diabetic complications, in view of their ability to reduce lens and peripheral nerve sorbitol levels in diabetic subjects to a statistically significant degree. […] Furthermore, the herein described compounds of this invention can be administered by either the oral, topical or parenteral routes of administration. […]
as §1, with “rats. […]” for “rats.”

In assay [3] the test system is sorbitol accumulation in the sciatic nerve. The assay can be described thus: Inhibition of sorbitol accumulation in the sciatic nerve of streptozotocinized (diabetic) rats. It is filed as in vivo, rat.
Text: as §2
as §1, with “rats. […]” for “rats.”

[4] abbreviates: partially purified enzyme from human placenta, read-out: Percent Inhibition of aldose reductase activity.
Where [5] appears, read: 25 mg./kg. orally at 4, 8 and 24 hours after streptozotocin, measured at 27 hours, vs untreated control.
Setting [6] is: diabetic rats, oral, 25 mg./kg.

The term inhibition denotes the drop in the measured response relative to a control, in per cent.

Take `O=C1NC(=O)C(N2C(=O)c3cccc4cccc(c34)C2=O)N1` (stereo not shown) [Example 1, 5-naphthalimido-imidazolidine-2,4-dione]: the inhibition at 100 µM on aldose reductase (10^-4 M, partially purified enzyme from human placenta, read-out: Percent Inhibition of aldose reductase activity) is 100%. In addition, at aldose reductase (setting [4]), the inhibition at 10 µM came to 59%, the inhibition at 1 µM was 17% and the inhibition at 0.1 µM stood at 6%. Moreover, the “aldose reductase inhibition (in words)” value on aldose reductase was “potent aldose reductase inhibitors”. Also, the “lowering sorbitol levels in the sciatic nerve and lens of diabetic subjects (in words)” value in assay [1] is “effective in lowering sorbitol levels”.
Consider `O=C1NC(=O)C(c2nn(Cc3ccc(Br)cc3F)c(=O)c3ccccc23)N1` (stereo not shown) [Example 4, 5-[3-(4'-bromo-2'-fluorobenzyl)-3,4-dihydro-4-oxophthalazin-1-yl]-imidazolidine-2,4-dione], for which, in assay [2] (setting [5]), the “reduction in the accumulated sorbitol levels in the lens” value is 36%. For the same compound, the “inhibition of the formation of sorbitol levels in the lens (in words)” value in assay [2] (setting [6]) is recorded as “to a significantly high degree”. Further, the “reduction in the accumulated sorbitol levels in the sciatic nerve” value in assay [3] (setting [5]) is 61%. In addition, the “inhibition of the formation of sorbitol levels in the sciatic nerve (in words)” value in assay [3] (setting [6]) is reported as “to a significantly high degree”. Further, at aldose reductase (setting [4]), the inhibition at 10 µM came out at 91%, the inhibition at 1 µM was 86% and the inhibition at 0.1 µM is 72%. The inhibition at 0.01 µM at aldose reductase (10^-8 M, partially purified enzyme from human placenta, read-out: Percent Inhibition of aldose reductase activity) came out at 20%. In addition, the “aldose reductase inhibition (in words)” value on aldose reductase is “potent aldose reductase inhibitors”. Further, the “lowering sorbitol levels in the sciatic nerve and lens of diabetic subjects (in words)” value in assay [1] was “effective in lowering sorbitol levels”.

(Values after patent US5011840A, “Imidazolidinedione derivatives in diabetes treatment” (Pfizer Inc., priority 1989, dated 1991).)
